Earlier results on 7 molecules are cited in patent publication US11850218B2, “Nutraceutical compositions and methods for dietary alleviation of Polycystic Ovary Syndrome” (Provation Life LLC, priority 2022, dated 2023).

In data set [1] the test system is hyperandrogenism.
Data set [2] relates to cellular sensitivity to insulin.
For data set [3], the system named is PCOS cases.

Take `[Mg+2]` [Magnesium]: the anti-androgenic effect result in data set [1] was “show anti-androgenic effects”. Further, in data set [1] (supplementation), the “production of lutenizing hormone” value is given as “seems to have a positive effect”.
As for chromium (III) picolinate, the “cellular sensitivity to insulin / insulin resistance” value in data set [2] is on record as “positive effect upon cellular sensitivity to insulin”. For the same molecule, the anti-androgenic effect result in data set [1] was “produces an anti-androgenic effect”. For the same molecule, in data set [1] (PCOS cases), the free testosterone levels result is recorded as “lowering free testosterone levels”.
For `COc1ccc2cc3[n+](cc2c1OC)CCc1cc2c(cc1-3)OCO2` [Berberine], in data set [2], the “cellular sensitivity to insulin / insulin resistance” value is “decrease insulin resistance”.
On to `CC[C@H](C)C(=O)O[C@H]1C[C@@H](C)C=C2C=C[C@H](C)[C@H](CC[C@@H]3C[C@@H](O)CC(=O)O3)[C@H]21` [Monacolin K], for which, in data set [1], the anti-androgenic effect entry was “provides an anti-androgenic effect”.
Take `O[C@H]1[C@H](O)[C@@H](O)[C@H](O)[C@@H](O)[C@H]1O` [myo-inositol]: the “menstruation / menstrual cyclicity” value in data set [3] was “restoration of normal menstruation”. Moreover, the “cellular sensitivity to insulin / insulin resistance” value in data set [2] was “increase cellular sensitivity to insulin”. Also, the anti-androgenic effect entry in data set [1] is “significant anti-androgenic effect”.
Regarding `COc1cc(/C=C/C(=O)CC(=O)/C=C/c2ccc(O)c(OC)c2)ccc1O` [Curcumin], the “cellular sensitivity to insulin / insulin resistance” value in data set [2] is “increases cellular sensitivity to insulin”.
In the case of `[Zn]` [Zinc], the anti-androgenic effect result in data set [1] is recorded as “show anti-androgenic effects”. Besides, the production of progesterone result in data set [1] (supplementation) is listed as “increase production”.
